Results published in patent publication US10246446B2, “Blockers of the growth hormone receptor in disease prevention and treatment” (UNIVERSITY OF SOUTHERN CALIFORNIA, priority 2015, dated 2019).

Assays:
Assay type in all cases: cell-based
human GHR [1] = target: T1, human GHR (Homo sapiens, UniProt P10912); assay: SOCS2 reporter luciferase assay, GH-stimulated cells; conditions: for GH induced increase in SOCS2 reporter activity: FIG. 5B; for SOCS2 reporter activity, % of untreated controls: cells serum starved, incubated with test compound (10 μM), treated with GH, normalized to renilla luciferase
T1 construct: expressed in transfected cells; HEK293 according to the assay procedure
T1 sequence (P10912 19-638): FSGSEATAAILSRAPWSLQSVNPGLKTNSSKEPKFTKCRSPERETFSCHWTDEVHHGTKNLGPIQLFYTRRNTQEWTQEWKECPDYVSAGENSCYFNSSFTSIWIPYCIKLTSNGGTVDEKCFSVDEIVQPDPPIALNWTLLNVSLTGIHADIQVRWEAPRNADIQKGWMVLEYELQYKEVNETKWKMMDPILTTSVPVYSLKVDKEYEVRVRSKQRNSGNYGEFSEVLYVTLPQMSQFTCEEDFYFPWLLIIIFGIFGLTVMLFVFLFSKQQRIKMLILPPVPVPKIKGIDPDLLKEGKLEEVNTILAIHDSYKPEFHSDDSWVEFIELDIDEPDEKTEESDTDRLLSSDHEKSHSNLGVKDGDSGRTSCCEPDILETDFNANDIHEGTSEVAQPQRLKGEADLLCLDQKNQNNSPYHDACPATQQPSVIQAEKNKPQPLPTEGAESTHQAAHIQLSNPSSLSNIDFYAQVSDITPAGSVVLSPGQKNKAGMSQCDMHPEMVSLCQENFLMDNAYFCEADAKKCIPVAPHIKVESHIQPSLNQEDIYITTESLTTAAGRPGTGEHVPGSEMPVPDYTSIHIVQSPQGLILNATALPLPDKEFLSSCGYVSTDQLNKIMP
Experimental: (§1) FIG. 5B. Lead compounds (#34, 37, 38) identified by luciferase reporter assays. Mouse L cells expressing human GHR were transfected with c-fos or SOCS2 reporter luciferase plasmids. Cells were serum starved, then incubated with test compounds (#34, 37, 38) before GH treatment. Data were normalized to co-transfected CMV-driven renilla luciferase and expressed as relative light units (RLU). (B) SOCS2 reporter luciferase activity.
FIG. 7. High throughput screening (HTS) platform for the identification of GHR inhibitors. Mouse L cells expressing human GHR were transfected with SOCS2 reporter luciferase plasmids. Cells were serum starved, pre-treated with test compounds (numbered as shown) and then GH. Data are normalized to CMV renilla luciferase and expressed as relative light units (RLU).
(§2) In order to perform high throughput screening (HTS) for inhibitors of GHR, HEK293 cell lines permanently transfected were established with a luciferase reporter driven by either c-fos or SOCS2 promoter (FIG. 7).
(§3) The SOCS (Suppressor of Cytokine Signaling) proteins are induced by GH and act as negative regulators of cytokine signaling pathways. […] Luciferase reporter constructs where the luciferase gene is under the control of promoters of either SOCS2 or c-fos have been stably transfected into human embryonic kidney, HEK293 cells. Cells were serum starved (0.5% FBS) for 24 hours to prevent interference by other growth factors and then treated with 5 or 10 nM hGH (established in dose response studies) and 10 μM of each test compound for 24 hours. This is followed by lysis and analysis of luciferase activity using the luciferase reporter assay (Promega). Each compound is tested in triplicate in a 96 well plate format.

human GHR [2] = target: T1, human GHR; assay: c-fos reporter luciferase assay, GH-stimulated cells; conditions: for GH induced increase in c-fos reporter activity: FIG. 5A; for c-fos reporter activity, % of untreated controls: cells serum starved, incubated with test compound (10 μM), treated with GH, normalized to renilla luciferase
Experimental: as §1, with “FIG. 5A.” for “FIG. 5B.”, “starved,” for “starved, then”, “38) and then treated with GH.” for “38) before GH treatment.”, “Data are” for “Data were”, “(RLU). (A) c-fos” for “(RLU). (B) SOCS2”
as §2, §3

human GHR [3] = assay: STAT5 phosphorylation assay (western blot), small molecules; conditions: mouse L cells expressing human GHR; compound 30 min prior to 5 nM hGH; FIG. 6
Experimental: FIG. 6. […] (A) Mouse L cells were incubated in 0.5% serum for 24 hours. Cells were treated with compounds 34, 37 or 38 for 30 min prior to 5 nM hGH treatment. The growth hormone antagonist (GHA) was used as a positive control.
The JAK/STAT signaling pathway is the principal signaling mechanism for a variety of growth factors and cytokines. In the growth hormone signaling pathway, dimerization of the GHR in response to GH binding leads to the activation of JAK by transphosphorylation. Activated JAK phosphorylates STAT5, which can then enter the nucleus and activate transcription of target genes. Inhibition of STAT5 phosphorylation will be used to analyze GHR antagonistic properties of the test compounds.
Mouse L fibroblasts engineered to express […] were obtained from Dr. John Kopchick. Serum starved L cells (0.5% FBS for 24 hours) were pre-treated for 30 minutes with 10 μM of each compound identified as a hit from the luciferase assays. Following this, cells were treated with 5 or 10 nM hGH for 10 minutes. Cells were collected and processed for western blotting with phospho-STAT5 and total STAT5 antibodies (Cell Signaling). The GHR antagonist, G120K is used as a positive control. Band intensity was analyzed using ImageJ and STAT5 phosphorylation normalized to total STAT5 levels. Compounds that inhibited STAT5 phosphorylation were selected for further drug optimization.

| SMILES | GH induced increase in SOCS2 reporter activity (human GHR [1]) | SOCS2 reporter activity, % of untreated controls (human GHR [1]) [%] | GH induced increase in c-fos reporter activity (human GHR [2]) | c-fos reporter activity, % of untreated controls (human GHR [2]) [%] | GH induced phosphorylation of STAT5 (human GHR [3]) |
| --- | --- | --- | --- | --- | --- |
| CNS(=O)(=O)c1cc(NC(=O)c2ccc(CSc3ccccc3)o2)ccc1C [Compound 37] | inhibited | 61 | inhibited | 27 | able to inhibit phosphorylation of STAT5 |
| O=C(Nc1cccc(S(=O)(=O)N2CCCCCC2)c1)c1ccco1 [Compound 34] | inhibited | 76 | inhibited | 57 | able to inhibit phosphorylation of STAT5 |
